Reference: ChEMBL document CHEMBL1139192, “Novel bis(indolyl)maleimide pyridinophanes that are potent, selective inhibitors of glycogen synthase kinase-3” (Bioorg Med Chem Lett, 2007)
Active and inactive are the calls of the source. No cut-off for these calls is given here.

Tests used:
[1] = biological target: Ribosomal protein S6 kinase alpha-5 (Homo sapiens, UniProt O75582); test: Inhibition of human MSK1
[2] = biological target: Protein kinase C theta type (Homo sapiens, UniProt Q04759); test: Inhibition of human PKCtheta
Homo sapiens = species: Homo sapiens; test: Selectivity for human recombinant GSK3-beta over human recombinant PKCbeta2
[3] = biological target: T1, BDNF/NT-3 growth factors receptor (Homo sapiens, UniProt Q16620); test: Inhibition of human TrkB at 1 uM relative to control
[4] = biological target: Ribosomal protein S6 kinase alpha-1 (Homo sapiens, UniProt Q15418); test: Inhibition of human Rsk1
[5] = biological target: T1, BDNF/NT-3 growth factors receptor; test: Inhibition of human TrkB
Target sequence in this assay (Q16620 whole entry): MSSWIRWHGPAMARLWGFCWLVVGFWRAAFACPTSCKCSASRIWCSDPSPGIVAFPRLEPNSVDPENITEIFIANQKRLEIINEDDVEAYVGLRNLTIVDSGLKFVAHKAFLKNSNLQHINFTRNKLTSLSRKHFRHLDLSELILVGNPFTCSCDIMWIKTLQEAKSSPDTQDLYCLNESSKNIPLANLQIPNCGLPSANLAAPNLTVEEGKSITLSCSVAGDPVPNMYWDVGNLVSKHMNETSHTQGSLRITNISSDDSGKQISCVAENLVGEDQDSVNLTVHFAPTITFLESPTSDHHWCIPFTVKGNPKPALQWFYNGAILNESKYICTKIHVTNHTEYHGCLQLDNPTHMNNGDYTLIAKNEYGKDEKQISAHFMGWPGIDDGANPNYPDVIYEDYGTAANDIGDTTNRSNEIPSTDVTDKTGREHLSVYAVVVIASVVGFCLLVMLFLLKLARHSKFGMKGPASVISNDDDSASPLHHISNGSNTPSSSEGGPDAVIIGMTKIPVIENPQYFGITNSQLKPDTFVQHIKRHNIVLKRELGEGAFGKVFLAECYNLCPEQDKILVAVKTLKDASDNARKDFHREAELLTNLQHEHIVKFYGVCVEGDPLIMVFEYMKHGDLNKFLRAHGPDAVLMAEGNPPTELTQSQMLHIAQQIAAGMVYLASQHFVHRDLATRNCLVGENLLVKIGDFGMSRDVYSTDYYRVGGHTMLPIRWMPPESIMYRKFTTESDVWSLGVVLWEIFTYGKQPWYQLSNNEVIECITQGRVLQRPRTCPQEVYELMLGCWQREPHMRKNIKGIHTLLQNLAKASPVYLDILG

[6] = biological target: Tyrosine-protein kinase ABL2 (Mus musculus) (UniProt Q4JIM5); test: Residual activity of mouse Arg at 1 uM relative to control
[7] = biological target: RAC-beta serine/threonine-protein kinase (Homo sapiens) (UniProt P31751); test: Residual activity of human PKBbeta at 1 uM relative to control
[8] = biological target: T2, Protein kinase C epsilon type (Homo sapiens) (UniProt Q02156); test: Residual activity of human PKCepsilon at 1 uM relative to control
T2 sequence (whole entry): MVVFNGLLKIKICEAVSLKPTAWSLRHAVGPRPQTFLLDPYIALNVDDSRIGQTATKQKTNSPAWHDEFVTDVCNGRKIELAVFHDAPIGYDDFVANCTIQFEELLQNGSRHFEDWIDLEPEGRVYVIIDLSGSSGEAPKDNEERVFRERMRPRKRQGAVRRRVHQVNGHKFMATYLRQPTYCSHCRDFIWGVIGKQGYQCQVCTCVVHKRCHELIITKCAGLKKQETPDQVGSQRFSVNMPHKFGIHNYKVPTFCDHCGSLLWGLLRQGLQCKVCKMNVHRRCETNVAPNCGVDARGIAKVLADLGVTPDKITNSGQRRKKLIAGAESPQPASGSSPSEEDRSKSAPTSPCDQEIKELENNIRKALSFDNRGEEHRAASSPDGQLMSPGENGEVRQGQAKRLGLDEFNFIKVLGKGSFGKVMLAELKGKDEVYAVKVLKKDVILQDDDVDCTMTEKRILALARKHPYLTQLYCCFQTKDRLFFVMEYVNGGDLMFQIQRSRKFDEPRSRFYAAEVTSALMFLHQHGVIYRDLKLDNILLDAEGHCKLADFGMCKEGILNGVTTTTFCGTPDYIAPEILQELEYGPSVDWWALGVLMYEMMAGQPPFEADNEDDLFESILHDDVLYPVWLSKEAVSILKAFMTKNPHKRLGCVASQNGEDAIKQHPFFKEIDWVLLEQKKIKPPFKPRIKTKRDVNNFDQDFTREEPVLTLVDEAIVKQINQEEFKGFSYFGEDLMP

[9] = biological target: Tyrosine-protein kinase Lyn (Mus musculus) (UniProt P25911); test: Inhibition of mouse Lyn at 1 uM relative to control; values are per cent of control
[10] = biological target: Cytoplasmic tyrosine-protein kinase BMX (Homo sapiens) (UniProt P51813); test: Inhibition of human BMX kinase at 1 uM relative to control; values are per cent of control
Cytoplasmic tyrosine-protein kinase BMX (Homo sapiens), sequence (P51813 whole entry): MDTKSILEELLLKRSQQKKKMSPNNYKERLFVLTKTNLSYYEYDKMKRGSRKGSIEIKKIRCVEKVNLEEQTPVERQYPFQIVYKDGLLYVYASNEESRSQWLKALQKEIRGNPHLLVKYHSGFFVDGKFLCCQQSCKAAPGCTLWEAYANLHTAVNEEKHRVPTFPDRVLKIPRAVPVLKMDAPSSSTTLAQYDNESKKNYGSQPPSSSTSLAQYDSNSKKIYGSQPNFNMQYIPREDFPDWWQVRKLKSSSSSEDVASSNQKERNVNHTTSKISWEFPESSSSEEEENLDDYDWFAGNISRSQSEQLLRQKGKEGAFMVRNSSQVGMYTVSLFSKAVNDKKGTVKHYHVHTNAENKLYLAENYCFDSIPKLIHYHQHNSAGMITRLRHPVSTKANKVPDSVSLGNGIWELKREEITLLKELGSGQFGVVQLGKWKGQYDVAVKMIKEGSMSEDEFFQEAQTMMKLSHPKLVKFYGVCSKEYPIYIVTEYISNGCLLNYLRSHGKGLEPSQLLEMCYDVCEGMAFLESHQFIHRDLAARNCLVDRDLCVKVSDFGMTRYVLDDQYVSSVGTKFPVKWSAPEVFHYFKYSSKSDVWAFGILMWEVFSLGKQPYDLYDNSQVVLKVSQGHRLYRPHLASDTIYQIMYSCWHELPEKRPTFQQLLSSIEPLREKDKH

RAC-beta serine/threonine-protein kinase (Homo sapiens), sequence (P31751 whole entry): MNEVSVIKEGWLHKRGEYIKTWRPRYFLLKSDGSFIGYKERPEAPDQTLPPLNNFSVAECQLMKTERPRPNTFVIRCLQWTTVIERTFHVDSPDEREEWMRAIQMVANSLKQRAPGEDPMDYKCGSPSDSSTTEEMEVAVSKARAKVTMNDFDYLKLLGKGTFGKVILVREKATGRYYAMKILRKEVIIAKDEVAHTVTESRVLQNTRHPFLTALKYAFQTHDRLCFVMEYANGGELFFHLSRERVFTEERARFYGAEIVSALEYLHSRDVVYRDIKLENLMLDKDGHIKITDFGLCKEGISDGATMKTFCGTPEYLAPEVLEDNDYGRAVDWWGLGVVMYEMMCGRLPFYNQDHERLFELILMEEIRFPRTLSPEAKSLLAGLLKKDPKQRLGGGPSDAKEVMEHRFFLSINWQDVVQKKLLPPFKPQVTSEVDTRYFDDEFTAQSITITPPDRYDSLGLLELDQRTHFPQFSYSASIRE
Tyrosine-protein kinase Lyn (Mus musculus), sequence (P25911 whole entry): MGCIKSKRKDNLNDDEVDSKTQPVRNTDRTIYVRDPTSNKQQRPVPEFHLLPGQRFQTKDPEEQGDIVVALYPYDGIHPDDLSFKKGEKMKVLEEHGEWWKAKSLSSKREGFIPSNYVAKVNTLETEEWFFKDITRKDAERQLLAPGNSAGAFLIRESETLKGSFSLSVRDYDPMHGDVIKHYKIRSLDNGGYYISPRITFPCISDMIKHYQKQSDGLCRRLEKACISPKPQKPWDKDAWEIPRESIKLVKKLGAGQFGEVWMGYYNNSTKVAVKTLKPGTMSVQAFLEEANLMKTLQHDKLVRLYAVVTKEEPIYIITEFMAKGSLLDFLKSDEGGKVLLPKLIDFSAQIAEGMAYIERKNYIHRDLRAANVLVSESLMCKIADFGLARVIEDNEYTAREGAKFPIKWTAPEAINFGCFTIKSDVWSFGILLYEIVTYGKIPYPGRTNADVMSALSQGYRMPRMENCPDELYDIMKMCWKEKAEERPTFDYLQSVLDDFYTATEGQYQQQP
Tyrosine-protein kinase ABL2 (Mus musculus), sequence (Q4JIM5 whole entry): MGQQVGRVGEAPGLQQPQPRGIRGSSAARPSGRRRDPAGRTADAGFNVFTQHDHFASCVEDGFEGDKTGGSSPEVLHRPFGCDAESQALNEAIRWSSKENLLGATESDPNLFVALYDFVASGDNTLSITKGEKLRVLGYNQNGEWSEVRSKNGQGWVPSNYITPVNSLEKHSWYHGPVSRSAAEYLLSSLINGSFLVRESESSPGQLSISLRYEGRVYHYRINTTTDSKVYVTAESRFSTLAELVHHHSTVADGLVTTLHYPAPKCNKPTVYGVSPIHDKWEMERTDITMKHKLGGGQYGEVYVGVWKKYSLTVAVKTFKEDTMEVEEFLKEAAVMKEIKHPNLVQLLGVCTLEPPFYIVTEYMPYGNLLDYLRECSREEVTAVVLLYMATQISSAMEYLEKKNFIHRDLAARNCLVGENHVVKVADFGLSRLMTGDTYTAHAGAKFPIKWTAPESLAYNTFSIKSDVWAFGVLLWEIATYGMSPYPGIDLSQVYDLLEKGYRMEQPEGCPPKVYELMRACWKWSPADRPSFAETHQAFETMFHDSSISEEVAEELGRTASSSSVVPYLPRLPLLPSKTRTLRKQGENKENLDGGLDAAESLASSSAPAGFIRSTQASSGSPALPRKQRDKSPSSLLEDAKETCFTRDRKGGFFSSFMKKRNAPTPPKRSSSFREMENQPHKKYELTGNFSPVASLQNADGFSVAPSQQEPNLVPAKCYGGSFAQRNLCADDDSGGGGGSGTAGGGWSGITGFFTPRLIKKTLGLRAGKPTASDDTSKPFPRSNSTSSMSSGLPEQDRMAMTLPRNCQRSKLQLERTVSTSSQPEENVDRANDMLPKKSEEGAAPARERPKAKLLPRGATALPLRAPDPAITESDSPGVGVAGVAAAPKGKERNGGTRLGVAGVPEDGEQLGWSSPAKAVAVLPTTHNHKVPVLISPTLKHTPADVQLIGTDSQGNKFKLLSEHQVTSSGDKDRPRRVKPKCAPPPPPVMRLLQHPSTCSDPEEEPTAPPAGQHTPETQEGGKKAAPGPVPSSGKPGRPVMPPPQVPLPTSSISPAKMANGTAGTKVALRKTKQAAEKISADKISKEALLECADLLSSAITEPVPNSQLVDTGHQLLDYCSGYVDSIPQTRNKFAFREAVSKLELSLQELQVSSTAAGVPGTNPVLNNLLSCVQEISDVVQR
Ribosomal protein S6 kinase alpha-1, sequence (Q15418 whole entry): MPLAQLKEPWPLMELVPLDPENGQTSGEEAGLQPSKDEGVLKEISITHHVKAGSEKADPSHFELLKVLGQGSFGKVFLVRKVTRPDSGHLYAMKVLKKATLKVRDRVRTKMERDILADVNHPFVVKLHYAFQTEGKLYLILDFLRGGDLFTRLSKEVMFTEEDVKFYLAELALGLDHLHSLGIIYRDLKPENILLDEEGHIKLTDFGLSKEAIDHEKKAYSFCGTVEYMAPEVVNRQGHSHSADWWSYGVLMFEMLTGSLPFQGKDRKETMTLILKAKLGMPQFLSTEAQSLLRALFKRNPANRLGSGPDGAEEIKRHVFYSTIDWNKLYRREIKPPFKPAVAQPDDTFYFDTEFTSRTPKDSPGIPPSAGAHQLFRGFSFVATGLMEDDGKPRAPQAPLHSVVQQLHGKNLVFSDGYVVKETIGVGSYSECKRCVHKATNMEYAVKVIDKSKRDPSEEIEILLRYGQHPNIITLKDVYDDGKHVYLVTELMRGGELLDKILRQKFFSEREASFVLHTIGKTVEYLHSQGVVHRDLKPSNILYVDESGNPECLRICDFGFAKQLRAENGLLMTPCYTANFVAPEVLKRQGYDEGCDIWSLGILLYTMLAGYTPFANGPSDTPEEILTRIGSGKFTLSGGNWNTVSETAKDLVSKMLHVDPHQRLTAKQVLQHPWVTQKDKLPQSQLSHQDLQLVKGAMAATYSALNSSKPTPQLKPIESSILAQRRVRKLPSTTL

Row | SMILES | IC50 [1] | IC50 [2] | Ratio IC50 (Homo sapiens) | Activity [3] | IC50 [4] | IC50 [5] | residual activity [6] | residual activity [7] | residual activity [8] | residual activity [9] | residual activity [10]
1 | CN(C)c1nc2ccc1CCCn1cc(c3ccccc31)C1=C(C(=O)NC1=O)c1cn(c3ccccc13)CC2 | 510 nM | 98 nM | 460 | inactive | 1900 nM | > 3000 nM | 113% | 86% | 72% | 90% | 101%
2 | CN(C)c1cc2cc(n1)CCCn1cc(c3ccccc31)C1=C(C(=O)NC1=O)c1cn(c3ccccc13)CCC2 |  |  |  |  |  |  | 129% | 118% | 83% | 102% | 
3 | O=C1NC(=O)C2=C1c1cn(c3ccccc13)CCCc1ccc(c(N3CCCC3)n1)CCCn1cc2c2ccccc21 |  |  |  |  |  |  | 130% | 102% | 97% | 104% | 
4 | O=C1NC(=O)C2=C1c1cn(c3ccccc13)CCCc1cc(nc(N3CCCC3)c1)CCCn1cc2c2ccccc21 |  |  |  |  |  |  | 121% | 104% | 93% | 99% | 
